Converted amounts (≈) assume the structure as drawn. Where two headings read alike, the source gives them in different places.
Key:
Staphylococcus aureus = assay: Susceptibility testing (MIC) Assay 1, broth microdilution; assay type: cell-based
Experimental: (§1) Minimum Inhibitory Concentrations (MICs) were determined by the broth microdilution method in accordance with the Clinical and Laboratory Standards Institute (CLSI) guidelines. In brief, organism suspensions were adjusted to a 0.5 McFarland standard to yield a final inoculum between 3×10^5 and 7×10^5 colony-forming units (CFU)/mL. Bacterial inocula were prepared for most organisms in sterile, cation adjusted Mueller-Hinton Broth (Beckton Dickinson). The streptococci were prepared as above in cation adjusted Mueller-Hinton Broth to which 2.5% lysed horse blood (Hema Resource & Supply Inc.) was added. An inoculum volume of 100 μL was added to wells (using a Tecan EVO robot) containing 2 μL of DMSO containing 2-fold serial dilutions of drug. All inoculated microdilution trays were incubated in ambient air at 35° C. for 18-24 hours. Following incubation, the lowest concentration of the drug that prevented visible growth as read at OD600 nm and confirmed by a visual read using a test reading mirror was recorded as the MIC. Performance of the assay was monitored by the use of laboratory quality-control strains and commercially available control compounds with defined MIC spectrums, in accordance with CLSI guidelines. Table 1 provides the MIC results (μM) of Examples 1-77 tested in Assay 1. Table 2 provides the MIC (μg/mL) results of Examples 78-80 tested in Assay 1.

Streptococcus pneumoniae = assay: as above; assay type: cell-based
Experimental: as §1

Streptococcus pyogenes = assay: as above; assay type: cell-based; conditions: Streptococcus pyrgenes, in vivo strain, read-out: Spy MIC
Experimental: as §1

Escherichia coli = assay: Susceptibility testing (MIC) Assay 2, broth microdilution; assay type: cell-based; conditions: K12, read-out: Eco MIC
Experimental: (§2) Minimum Inhibitory Concentrations (MICs) were determined by the broth microdilution method in accordance with the Clinical and Laboratory Standards Institute (CLSI) guidelines. In brief, organism suspensions were adjusted to a 0.5 McFarland standard to yield a final inoculum between 3×10^5 and 7×10^5 colony-forming units (CFU)/mL. Bacterial inocula were generally prepared in sterile, cation adjusted Mueller-Hinton Broth (Becton Dickinson) which included Escherichia coli, Klebsiella pneumoniae, and Pseudomonas aeruginosa. Haemophilus influenzae bacterial inocula were prepared in sterile, cation adjusted Mueller-Hinton Broth (Becton Dickinson) containing 0.5% yeast extract (Becton Dickinson) plus 30 mL of 15 μg/mL Bovine Hematin stock (Sigma), and 3 mL of 15 μg/mL β-nicotinamide adenine dinucleotide (Sigma). Strains of Neisseria were tested for MICs using agar dilution methodology in accordance with CLSI guidelines. For broth microdilution testing, an inoculum volume of 100 μL was added to wells (using a Tecan EVO robot) containing 2 μL of DMSO containing 2-fold serial dilutions of drug. All inoculated microdilution panels were incubated in ambient air at 35° C. for 18-24 hours. Following incubation, the lowest concentration of the drug that prevented visible growth as read at OD600 nm and confirmed by a visual read using a test reading mirror was recorded as the MIC. Performance of the assay was monitored by the use of laboratory quality-control strains and commercially available control compounds with defined MIC spectrums, in accordance with CLSI guidelines. Table 3 provides the MIC results (μM) of Examples 1-77 tested in Assay 2. Table 4 provides the MIC (μg/mL) results of Examples 78-80 tested in Assay 2.

Haemophilus influenzae = assay: as above; assay type: cell-based; conditions: ATCC 51907, in vivo strain, read-out: Hin MIC
Experimental: as §2

Klebsiella pneumoniae = assay: as above; assay type: cell-based; conditions: clinical isolate, mucoid, read-out: Kpn MIC
Experimental: as §2

Pseudomonas aeruginosa = assay: as above; assay type: cell-based; conditions: for MIC: PAO1, read-out: Pae MIC; for Pae MIC: PAO1
Experimental: as §2

[1] = molecular target: Escherichia coli DNA gyrase A/B tetramer (Escherichia coli (strain K12), UniProt P0AES4+P0AES6); assay: DNA gyrase supercoiling activity fluorescence polarisation assay; assay type: biochemical; conditions: 0.3 mM ATP
Experimental: In a black, 384-well polystyrene assay plate, 30 microliters/well of 5 nM Escherichia coli DNA gyrase A/B tetramer and 130 micrograms/mL of topologically relaxed plasmid containing the triplex-forming sequence
in an assay buffer consisting of 35 mM Tris-HCl (pH 7.5), 24 mM KCl, 4 mM MgCl2, 2 mM dithiothreitol, 1.8 mM spermidine, 5% (v/v) glycerol, 200 nM bovine serum albumin, 0.8% dimethylsulfoxide, and 0.3 mM ATP were incubated at ambient temperature for (typically 30 minutes) in the absence or presence of 5-10 different concentrations of test compound. The supercoiling reactions were quenched by the addition of 10 microliters/well of 40 nM oligodeoxynucleotide probe in 3× triplex-forming buffer consisting of 150 mM NaCl, and 150 mM sodium acetate at pH 3.5. The oligodeoxynucleotide probe was 5′-BODIPY-FL-labeled
After 60 minutes, the fluorescence anisotropy of the BODIPY-FL was measured in a Tecan Ultra plate reader, using 485 nm excitation and 535 nm emission filters equipped with polarizers. The IC50 was determined by nonlinear regression using two control reactions.

[2] = Staphylococcus aureus, Staphylococcus aureus in vivo strain, MSQS, read-out: Sau(d) MIC
[3] = Staphylococcus aureus, in vivo strain, MRQR, read-out: Sau(e) MIC
[4] = Staphylococcus aureus, serum, read-out: Sau(f) MIC
[5] = in vivo strain (footnote b), read-out: Spn(b) MIC
[6] = in vivo strain (footnote c), read-out: Spn(c) MIC
[7] = ATCC51907, Haemophilus influenzae
[8] = Eco Gyr FP Mean IC50, E. coli DNA gyrase supercoiling
[9] = Staphylococcus aureus in vivo strain, MSQS, read-out: Sau(d) MIC
[10] = E. coli DNA gyrase supercoiling, read-out: Eco Gyr FP Mean IC50

| SMILES | MIC (Staphylococcus aureus; [2]) [µM] | MIC (Staphylococcus aureus; [3]) [µM] | MIC (Staphylococcus aureus; [4]) [µM] | MIC (Streptococcus pneumoniae; [5]) [µM] | MIC (Streptococcus pneumoniae; [6]) [µM] | MIC (Streptococcus pyogenes; Streptococcus pyogenes) [µM] | MIC (Escherichia coli) [µM] | MIC (Haemophilus influenzae; [7]) [µM] | MIC (Klebsiella pneumoniae) [µM] | MIC (Pseudomonas aeruginosa) [µM] | IC50 [1, 8] [nM] | MIC (Staphylococcus aureus; [9]) [µM] | MIC (Streptococcus pyogenes) [µM] | MIC (Haemophilus influenzae) [µM] | Pae MIC (Pseudomonas aeruginosa) [µM] | IC50 [1, 10] [nM] |
| --- | --- | --- | --- | --- | --- | --- | --- | --- | --- | --- | --- | --- | --- | --- | --- | --- |
| COC[C@H]1CN(c2noc3c(Cl)c4c(cc23)CC2(C(=O)NC(=O)NC2=O)[C@H]2[C@H](C)O[C@H](C)CN42)C(=O)O1 [Example 21, (2R,4S,4aS)-11-Chloro-8-[(5R)-4-(methoxymethyl)-2-oxo-1,3-oxazolidin-3-yl]-2,4-dimethyl-1,2,4,4a-tetrahydro-2′H,6H-spiro[1,4-oxazino[4,3-a][1,2]oxazolo[4,5-g]quinoline-5,5′-pyrimidine]-2′,4′,6′(1′H,3′H)-trione] | 0.78 (≈ 0.416 µg/mL) | 3.1 (≈ 1.66 µg/mL) | 3.1 (≈ 1.66 µg/mL) | 1.6 (≈ 0.854 µg/mL) | 1.6 (≈ 0.854 µg/mL) | 0.78 (≈ 0.416 µg/mL) | 50 (≈ 26.7 µg/mL) | 1.6 (≈ 0.854 µg/mL) | 200 (≈ 107 µg/mL) | > 200 | 540 |  |  |  |  |  |
| C[C@@H]1CN(c2noc3c(Cl)c4c(cc23)CC2(C(=O)NC(=O)NC2=O)[C@H]2[C@H](C)O[C@H](C)CN42)C(=O)O1 [Example 22] | < 0.2 | 0.78 (≈ 0.393 µg/mL) | 0.78 (≈ 0.393 µg/mL) | 0.39 (≈ 0.197 µg/mL) | 0.39 (≈ 0.197 µg/mL) | 0.39 (≈ 0.197 µg/mL) | 12 (≈ 6.05 µg/mL) | 0.78 (≈ 0.393 µg/mL) | 200 (≈ 101 µg/mL) | > 200 | 210 |  |  |  |  |  |
| C[C@@H]1CN2c3c(cc4c(N5C(=O)O[C@H](C)[C@@H]5C)noc4c3F)CC3(C(=O)NC(=O)NC3=O)[C@H]2[C@H](C)O1 [Example 23] | 0.39 (≈ 0.196 µg/mL) | 0.78 (≈ 0.391 µg/mL) | 0.78 (≈ 0.391 µg/mL) | 0.78 (≈ 0.391 µg/mL) | 0.78 (≈ 0.391 µg/mL) | 0.39 (≈ 0.196 µg/mL) | 6.2 (≈ 3.11 µg/mL) | 0.39 (≈ 0.196 µg/mL) | 100 (≈ 50.1 µg/mL) | > 200 | 520 |  |  |  |  |  |
| C[C@@H]1CN2c3c(cc4c(N5C(=O)O[C@@H](C)[C@H]5C)noc4c3F)CC3(C(=O)NC(=O)NC3=O)[C@H]2[C@H](C)O1 [Example 24] | 0.39 (≈ 0.196 µg/mL) | 1.6 (≈ 0.802 µg/mL) | 1.6 (≈ 0.802 µg/mL) | 1.6 (≈ 0.802 µg/mL) | 1.6 (≈ 0.802 µg/mL) | 0.78 (≈ 0.391 µg/mL) | 50 (≈ 25.1 µg/mL) | 3.1 (≈ 1.55 µg/mL) | > 200 | > 200 | > 2100 |  |  |  |  |  |
| C=CC[C@H]1COC(=O)N1c1noc2c(F)c3c(cc12)CC1(C(=O)NC(=O)NC1=O)[C@H]1[C@H](C)O[C@H](C)CN31 [Example 25, (2R,4S,4aS)-8-((S)-4-Allyl-2-oxooxazolidin-3-yl)-11-fluoro-2,4-dimethyl-2,4,4a,6-tetrahydro-1H,1′H-spiro[isoxazolo[4,5-g][1,4]oxazino[4,3-a]quinoline-5,5′-pyrimidine]-2′,4′,6′(3′H)-trione] | 0.39 (≈ 0.2 µg/mL) | 0.39 (≈ 0.2 µg/mL) | 1.6 (≈ 0.822 µg/mL) | 0.78 (≈ 0.401 µg/mL) | 0.78 (≈ 0.401 µg/mL) | 0.78 (≈ 0.401 µg/mL) | 12 (≈ 6.16 µg/mL) | 0.78 (≈ 0.401 µg/mL) | 200 (≈ 103 µg/mL) | > 200 | 260 |  |  |  |  |  |
| C[C@@H]1CN2c3c(cc4c(N5C[C@@H](CO)OC5=O)noc4c3F)CC3(C(=O)NC(=O)NC3=O)[C@H]2[C@H](C)O1 [Example 26, (2R,4S,4aS)-11-Fluoro-8-((S)-5-(hydroxymethyl)-2-oxooxazolidin-3-yl)-2,4-dimethyl-2,4,4a,6-tetrahydro-1H,1′H-spiro[isoxazolo[4,5-g][1,4]oxazino[4,3-a]quinoline-5,5′-pyrimidine]-2′,4′,6′(3′H)-trione] | 2.2 (≈ 1.11 µg/mL) | 12 (≈ 6.04 µg/mL) | 1.6 (≈ 0.806 µg/mL) | 0.28 (≈ 0.141 µg/mL) | 0.55 (≈ 0.277 µg/mL) | < 0.2 | 25 (≈ 12.6 µg/mL) | < 0.2 | > 200 | > 200 | 170 |  |  |  |  |  |
| C[C@@H]1CN2c3c(cc4c(N5C(=O)OC[C@H]5C5CCOCC5)noc4c3F)CC3(C(=O)NC(=O)NC3=O)[C@H]2[C@H](C)O1 [Example 27] |  | 3.1 (≈ 1.73 µg/mL) | 1.6 (≈ 0.892 µg/mL) | 0.78 (≈ 0.435 µg/mL) | 0.78 (≈ 0.435 µg/mL) |  | 100 (≈ 55.8 µg/mL) |  | >200 |  |  | 0.78 (≈ 0.435 µg/mL) | 0.78 (≈ 0.435 µg/mL) | 0.39 (≈ 0.217 µg/mL) | >200 | 530 |
| C[C@@H]1CN2c3c(cc4c(N5C(=O)OC[C@@H]5C5CCOCC5)noc4c3F)CC3(C(=O)NC(=O)NC3=O)[C@H]2[C@H](C)O1 [Example 28] |  | 50 (≈ 27.9 µg/mL) | 50 (≈ 27.9 µg/mL) | 25 (≈ 13.9 µg/mL) | 25 (≈ 13.9 µg/mL) |  | >200 |  | >200 |  |  | 25 (≈ 13.9 µg/mL) | 25 (≈ 13.9 µg/mL) | 25 (≈ 13.9 µg/mL) | >200 | > 2100 |
| C[C@@H]1CN2c3c(cc4c(N5C(=O)OC[C@@H]5CCCO)noc4c3F)CC3(C(=O)NC(=O)NC3=O)[C@H]2[C@H](C)O1 [Example 29, (2R,4S,4aS)-11-Fluoro-8-((S)-4-(3-hydroxypropyl)-2-oxooxazolidin-3-yl)-2,4-dimethyl-2,4,4a,6-tetrahydro-1H,1′H-spiro[isoxazolo[4,5-g][1,4]oxazino[4,3-a]quinoline-5,5′-pyrimidine]-2′,4′,6′(3′H)-trione] | 3.1 (≈ 1.65 µg/mL) | 12 (≈ 6.38 µg/mL) | 3.1 (≈ 1.65 µg/mL) | 0.39 (≈ 0.207 µg/mL) | 0.78 (≈ 0.415 µg/mL) | 0.39 (≈ 0.207 µg/mL) | 100 (≈ 53.1 µg/mL) | 0.78 (≈ 0.415 µg/mL) | > 200 | > 200 | 270 |  |  |  |  |  |
| C[C@@H]1CN2c3c(cc4c(N5C(=O)OC[C@@H]5CCCF)noc4c3F)CC3(C(=O)NC(=O)NC3=O)[C@H]2[C@H](C)O1 [Example 30, (2R,4S,4aS)-11-Fluoro-8-((S)-4-(3-fluoropropyl)-2-oxooxazolidin-3-yl)-2,4-dimethyl-2,4,4a,6-tetrahydro-1H,1′H-spiro[isoxazolo[4,5-g][1,4]oxazino[4,3-a]quinoline-5,5′-pyrimidine]-2′,4′,6′(3′H)-trione] | < 0.2 | 0.78 (≈ 0.416 µg/mL) | 0.78 (≈ 0.416 µg/mL) | 0.39 (≈ 0.208 µg/mL) | 0.39 (≈ 0.208 µg/mL) | 0.39 (≈ 0.208 µg/mL) | 25 (≈ 13.3 µg/mL) | 0.39 (≈ 0.208 µg/mL) | 200 (≈ 107 µg/mL) | > 200 | 500 |  |  |  |  |  |

Reference: patent US8889671B2, “Compounds and methods for treating bacterial infections” (AstraZeneca AB, priority 2013, dated 2014)
